Consider seven compounds from ChEMBL document CHEMBL1201862, “PubChem BioAssay data set” (2004).

Assay [1] has as its target Phospholipase A2 (Homo sapiens, UniProt P04054). Format: functional.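 Also: confirmatory dose-response counterscreen on phospholipase A2, testing hits that came from an ultra-high-throughput screen for ATG4B inhibitors.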
Assay [2] concerns the target T1, Cysteine protease ATG4B (Homo sapiens, UniProt Q9Y4P1).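 Also: Fluorescence-based dose-response confirmation assay measuring inhibition of ATG4B activity.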
T1 sequence (Q9Y4P1 whole entry): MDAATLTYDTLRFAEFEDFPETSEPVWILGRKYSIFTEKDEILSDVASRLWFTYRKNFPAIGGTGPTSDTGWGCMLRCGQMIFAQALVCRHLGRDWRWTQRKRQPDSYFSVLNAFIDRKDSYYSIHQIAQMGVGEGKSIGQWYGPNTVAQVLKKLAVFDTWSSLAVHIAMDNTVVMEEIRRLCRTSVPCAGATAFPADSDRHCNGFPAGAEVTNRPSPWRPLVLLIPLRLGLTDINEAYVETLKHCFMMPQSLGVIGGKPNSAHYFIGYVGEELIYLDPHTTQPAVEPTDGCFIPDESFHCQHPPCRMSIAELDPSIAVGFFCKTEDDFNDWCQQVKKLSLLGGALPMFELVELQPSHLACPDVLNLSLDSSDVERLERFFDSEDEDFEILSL
Format: functional.

Assay [3] relates to BJ. Briefly: growth inhibition of engineered Ras-driven BJ cells – cell-based, alamar blue fluorescence, cherrypicked samples, dose response (AID 2631).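 Also: confirmatory dose-response assay in RAS-dependent BJ fibroblasts engineered with TERT, LT and ST, with cytotoxicity read by fluorescence.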 It counts as functional. The following applies: Homo sapiens. Background: Resazurin is reduced to fluorescent resorufin, in cell work by metabolically active cells.
Assay [4] has as its target Tumor necrosis factor (Homo sapiens, UniProt P01375). Briefly: analog potency on TNFa NF-kB signaling – cell-based, revised, SAR follow-up (AID 2337). It counts as functional.
Assay [5] relates to HEK293. Briefly: NOD2 signaling inhibitors in MDP-stimulated cells, cell-based, uHTS, luminescence (AID 2001). Format: functional. The conditions noted are these: Homo sapiens.
Assay [6] has as its system HEK293. Kind of assay: cells. It counts as functional, cell-based. The conditions noted are these: Homo sapiens.
In assay [7] the test system is HEK293. Kind of assay: cells. The conditions noted are these: Homo sapiens.
Assay [8] concerns BJ. Briefly: BJ-TERT fibroblast viability loss – cell-based, RAS-independent, luminescence, dose response (AID 1933). The conditions noted are these: Homo sapiens. It counts as functional.
Assay [9] can be described thus: DRD fibroblast viability loss – cell-based, non-viral oncogenic, luminescence, dose response (AID 1934). It counts as functional. The conditions noted are these: Homo sapiens.
In assay [10] the test system is HEK293. Kind of assay: cells. It counts as functional, cell-based. The conditions noted are these: Homo sapiens. The source holds these as a separate data set.
Assay [11] deals with Prothrombin (Homo sapiens, UniProt P00734). Kind of assay: Thrombin 1536 HTS Dose Response Confirmation. [Related pubchem assays: 1046 (Thrombin 1536 HTS; hits were confirmed in this assay)]. Format: functional.
Assay [12] has as its system BJ. Briefly: cells. The conditions noted are these: Homo sapiens. It counts as functional, cell-based.
In assay [13] the target is T2, Nucleotide-binding oligomerization domain-containing protein 1 (Homo sapiens, UniProt Q9Y239).
T2 sequence (Q9Y239 whole entry): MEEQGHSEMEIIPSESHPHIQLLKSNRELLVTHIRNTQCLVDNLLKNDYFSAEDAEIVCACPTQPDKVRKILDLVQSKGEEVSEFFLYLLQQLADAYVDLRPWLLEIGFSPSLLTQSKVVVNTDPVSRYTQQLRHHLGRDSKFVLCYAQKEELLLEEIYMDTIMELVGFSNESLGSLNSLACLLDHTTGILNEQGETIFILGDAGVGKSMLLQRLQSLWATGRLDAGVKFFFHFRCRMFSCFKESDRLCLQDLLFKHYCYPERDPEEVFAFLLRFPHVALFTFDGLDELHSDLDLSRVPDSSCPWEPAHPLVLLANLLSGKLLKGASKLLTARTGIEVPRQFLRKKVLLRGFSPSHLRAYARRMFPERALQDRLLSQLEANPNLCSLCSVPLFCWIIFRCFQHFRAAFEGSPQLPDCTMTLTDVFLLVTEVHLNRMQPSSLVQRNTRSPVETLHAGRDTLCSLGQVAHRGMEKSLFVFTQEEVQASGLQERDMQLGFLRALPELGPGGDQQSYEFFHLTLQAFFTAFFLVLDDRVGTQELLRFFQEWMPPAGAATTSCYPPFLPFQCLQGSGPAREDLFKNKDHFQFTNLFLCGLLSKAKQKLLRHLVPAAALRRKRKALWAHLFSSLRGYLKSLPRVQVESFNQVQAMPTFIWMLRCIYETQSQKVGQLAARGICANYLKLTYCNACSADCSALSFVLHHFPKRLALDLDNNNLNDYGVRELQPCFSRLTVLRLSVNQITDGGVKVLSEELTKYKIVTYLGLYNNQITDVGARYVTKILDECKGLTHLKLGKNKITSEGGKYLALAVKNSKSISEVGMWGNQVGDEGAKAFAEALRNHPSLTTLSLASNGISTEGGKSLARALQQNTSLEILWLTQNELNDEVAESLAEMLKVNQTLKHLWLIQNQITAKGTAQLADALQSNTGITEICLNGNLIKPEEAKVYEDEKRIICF
Briefly: blockers of NOD1 pathway activity – revised, SAR follow-up (AID 2333). It counts as functional.

The test system of assay [14] is HEK293. Kind of assay: inhibition of NOD1-driven NF-kB reporter – cell-based, luminescence, uHTS, primary screen (AID 1578). Format: functional. The conditions noted are these: Homo sapiens.
Assay [15] concerns BJ. Briefly: BJ-TERT-LT-ST fibroblast viability loss – cell-based, RAS-independent, luminescence, dose response (AID 1935).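 Also: BJ fibroblasts immortalized with TERT plus LT and ST oncogenes.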 It counts as functional. The following applies: Homo sapiens.
The subject of assay [16] is HEK293. Kind of assay: cells. Format: functional, cell-based. The following applies: Homo sapiens. This is another data set of the same source.
Assay [17] in a line: reduction of Shn3 3'UTR-driven luciferase in osteoblasts – cell-based, Clone20 osteoblasts, firefly luciferase, cherry-picked, dose response (AID 624132).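 Also: firefly luciferase luminescence from reporter carrying the Shn3 3'UTR in osteoblasts.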 Format: functional.
The nature of assay [18]: loss of viability in HepG2 cells – cell-based, CellTiter-Glo, cherry-picked, cytotoxicity control for Shn3 inhibitor project, dose response (AID 624134). It counts as functional. (In general: ATP-based viability assays read luminescence as a measure of living cells.)
Assay [19] addresses Nucleotide-binding oligomerization domain-containing protein 2 (Homo sapiens, UniProt Q9HC29). Briefly: inhibition of NOD2-driven NF-kB reporter – cell-based, luminescence, uHTS, HEK293 (AID 1566). It counts as functional.
The nature of assay [20]: decrease of insulin promoter-GFP reporter – imaging, high-content screening, mouse beta cells (AID 1628). Format: functional. The following applies: MIN6.
Assay [21] is described as follows: MIN6 cell viability loss – mouse insulinoma, cytotoxicity control, dose response (AID 2122).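 Also: confirmatory high-throughput counterscreen run to flag cytotoxic compounds.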 Format: functional.
A short description of assay [22]: non-specific 3'UTR reporter inhibition in Clone20-Shn3RL – cell-based, Renilla luciferase, cherry-picked, counter-screen for Shn3 inhibitor project, dose response (AID 624133). It counts as functional. (In general: A counterscreen serves to expose hits that act by an unwanted route or on another target.)
Assay [23] deals with HEK293. Kind of assay: EBV LMP1 TES2 canonical NF-kB signalling blockers – cell-based, HEK293, luciferase, cherry-pick, dose response (AID 588343). Format: functional. The conditions noted are these: Homo sapiens.
For assay [24], the target named is T3, Heat shock factor protein 1 (Mus musculus, UniProt P38532).
T3 sequence (P38532 whole entry): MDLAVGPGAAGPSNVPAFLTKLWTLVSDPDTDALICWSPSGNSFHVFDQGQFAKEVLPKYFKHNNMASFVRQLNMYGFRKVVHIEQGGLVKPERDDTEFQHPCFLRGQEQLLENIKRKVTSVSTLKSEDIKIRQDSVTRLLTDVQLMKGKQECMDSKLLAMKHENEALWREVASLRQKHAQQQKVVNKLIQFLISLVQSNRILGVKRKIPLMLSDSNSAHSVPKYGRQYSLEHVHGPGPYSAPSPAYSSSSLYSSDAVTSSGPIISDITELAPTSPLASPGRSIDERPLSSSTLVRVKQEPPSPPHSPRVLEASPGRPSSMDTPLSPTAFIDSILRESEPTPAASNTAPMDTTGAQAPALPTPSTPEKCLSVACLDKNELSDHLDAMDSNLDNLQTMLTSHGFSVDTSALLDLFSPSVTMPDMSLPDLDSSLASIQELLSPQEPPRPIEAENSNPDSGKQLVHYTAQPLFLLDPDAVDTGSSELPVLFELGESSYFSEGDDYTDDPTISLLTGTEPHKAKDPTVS
Briefly: enhancement of HSF1-driven luciferase signal – cell-based, NIH3T3, luminescence, dose retest, confirmation (AID 435004).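 Also: stress induced by proteasome inhibitor MG132 added 30 min after compound; luciferase reporter driven by HSF1 response element in NIH3T3 cells; actives raise luminescence as potentiators of the MG132 stress response.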 It counts as functional.

For assay [25], the target named is Glucose-6-phosphate 1-dehydrogenase (Homo sapiens, UniProt P11413). Briefly: inhibition of Homo sapiens G6PD, dose series – biochemical, fluorescence, selectivity assay for P. falciparum G6PD inhibitor project, dose response (AID 504792). It counts as functional.
Assay [26] addresses T4, RNA-binding protein pos-1 (Caenorhabditis elegans, UniProt G5EF15).
T4 sequence (G5EF15 whole entry): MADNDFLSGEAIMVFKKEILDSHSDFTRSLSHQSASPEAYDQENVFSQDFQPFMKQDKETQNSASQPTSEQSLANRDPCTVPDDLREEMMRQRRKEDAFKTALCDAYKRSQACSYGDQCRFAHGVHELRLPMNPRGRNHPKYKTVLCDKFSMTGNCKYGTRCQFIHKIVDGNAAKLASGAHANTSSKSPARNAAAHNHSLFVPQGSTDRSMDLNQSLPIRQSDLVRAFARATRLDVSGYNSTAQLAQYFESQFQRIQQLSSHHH
Briefly: disruptors of C. elegans POS-1 RNA interaction – biochemical, fluorescence polarization, dose response (AID 1964).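 Also: purified POS-1 fused to maltose binding protein made in E. coli; potency of compounds blocking POS-1 binding to fluorescent RNA.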

Assay [27] concerns the target T5, Zinc finger protein mex-5 (Caenorhabditis elegans, UniProt Q9XUB2).
T5 sequence (Q9XUB2 whole entry): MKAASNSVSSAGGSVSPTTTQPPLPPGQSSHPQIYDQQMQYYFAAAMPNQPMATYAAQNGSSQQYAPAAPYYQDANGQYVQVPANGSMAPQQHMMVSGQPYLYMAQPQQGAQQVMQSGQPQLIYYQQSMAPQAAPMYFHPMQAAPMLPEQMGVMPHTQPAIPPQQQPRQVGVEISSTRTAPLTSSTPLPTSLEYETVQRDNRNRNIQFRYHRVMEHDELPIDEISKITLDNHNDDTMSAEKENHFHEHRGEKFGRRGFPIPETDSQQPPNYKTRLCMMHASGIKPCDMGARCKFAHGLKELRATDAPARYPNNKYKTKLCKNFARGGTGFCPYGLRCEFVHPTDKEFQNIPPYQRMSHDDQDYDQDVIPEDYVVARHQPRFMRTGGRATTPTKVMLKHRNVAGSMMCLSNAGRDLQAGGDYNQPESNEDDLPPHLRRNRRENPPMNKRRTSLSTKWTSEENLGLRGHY
Kind of assay: potency of MEX-5 RNA-binding blockers – biochemical, C. elegans, fluorescence polarization, dose response (AID 1960).

The source made the active and inactive calls.

Phospholipase A2, sequence (P04054 whole entry): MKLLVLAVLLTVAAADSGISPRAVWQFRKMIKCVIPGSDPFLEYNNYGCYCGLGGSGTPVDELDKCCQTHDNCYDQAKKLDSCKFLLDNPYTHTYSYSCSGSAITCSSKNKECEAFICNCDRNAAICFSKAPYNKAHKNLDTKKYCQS
Tumor necrosis factor, sequence (P01375 whole entry): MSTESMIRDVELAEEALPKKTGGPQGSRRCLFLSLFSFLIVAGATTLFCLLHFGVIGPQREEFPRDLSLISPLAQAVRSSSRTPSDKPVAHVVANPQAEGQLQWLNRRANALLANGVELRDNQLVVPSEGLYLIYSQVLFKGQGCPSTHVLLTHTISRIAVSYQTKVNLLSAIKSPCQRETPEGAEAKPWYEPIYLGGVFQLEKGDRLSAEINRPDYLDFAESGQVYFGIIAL
Nucleotide-binding oligomerization domain-containing protein 2, sequence (Q9HC29 whole entry, the tested form may be a part): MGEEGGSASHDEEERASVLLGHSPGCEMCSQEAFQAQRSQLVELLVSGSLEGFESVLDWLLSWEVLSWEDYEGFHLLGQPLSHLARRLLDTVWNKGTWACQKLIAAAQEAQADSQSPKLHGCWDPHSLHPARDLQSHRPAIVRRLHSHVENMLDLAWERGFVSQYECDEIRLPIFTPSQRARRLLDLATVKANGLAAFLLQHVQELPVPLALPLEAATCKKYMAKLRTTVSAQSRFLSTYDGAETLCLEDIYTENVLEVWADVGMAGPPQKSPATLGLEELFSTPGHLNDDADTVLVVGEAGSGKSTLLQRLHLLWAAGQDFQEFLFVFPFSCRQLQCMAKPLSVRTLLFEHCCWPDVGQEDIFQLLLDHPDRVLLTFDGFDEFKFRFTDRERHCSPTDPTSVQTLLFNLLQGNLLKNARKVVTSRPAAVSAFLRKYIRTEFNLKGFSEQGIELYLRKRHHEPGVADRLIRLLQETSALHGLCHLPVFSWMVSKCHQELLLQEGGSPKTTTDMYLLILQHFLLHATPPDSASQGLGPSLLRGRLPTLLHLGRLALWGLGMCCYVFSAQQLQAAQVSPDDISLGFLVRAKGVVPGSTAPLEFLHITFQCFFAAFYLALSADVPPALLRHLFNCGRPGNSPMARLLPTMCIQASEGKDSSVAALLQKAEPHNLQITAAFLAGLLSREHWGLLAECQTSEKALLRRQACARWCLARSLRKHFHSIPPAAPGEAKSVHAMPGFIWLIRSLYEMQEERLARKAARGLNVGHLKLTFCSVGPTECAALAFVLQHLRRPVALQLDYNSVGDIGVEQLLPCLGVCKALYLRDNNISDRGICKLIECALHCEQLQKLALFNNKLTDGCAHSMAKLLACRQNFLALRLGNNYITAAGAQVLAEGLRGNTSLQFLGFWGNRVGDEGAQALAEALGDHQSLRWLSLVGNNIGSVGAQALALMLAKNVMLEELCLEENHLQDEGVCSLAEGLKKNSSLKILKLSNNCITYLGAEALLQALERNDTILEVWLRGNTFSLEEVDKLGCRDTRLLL
Glucose-6-phosphate 1-dehydrogenase, sequence (P11413 whole entry): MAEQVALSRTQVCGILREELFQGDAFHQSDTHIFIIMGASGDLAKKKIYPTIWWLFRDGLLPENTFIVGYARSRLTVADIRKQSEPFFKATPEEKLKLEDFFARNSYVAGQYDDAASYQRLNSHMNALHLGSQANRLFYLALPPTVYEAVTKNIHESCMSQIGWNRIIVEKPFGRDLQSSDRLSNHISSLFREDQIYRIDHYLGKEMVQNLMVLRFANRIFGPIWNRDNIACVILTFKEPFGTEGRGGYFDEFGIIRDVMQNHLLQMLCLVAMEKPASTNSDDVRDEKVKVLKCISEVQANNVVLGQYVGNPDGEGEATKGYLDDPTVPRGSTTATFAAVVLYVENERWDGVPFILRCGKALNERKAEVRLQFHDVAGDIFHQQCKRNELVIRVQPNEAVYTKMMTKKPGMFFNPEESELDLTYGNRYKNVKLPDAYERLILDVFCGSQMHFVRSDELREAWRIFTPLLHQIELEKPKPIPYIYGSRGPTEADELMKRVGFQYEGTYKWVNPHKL

With `COC(=O)CSc1nc2cc(Cl)ccc2c(=O)n1C1CCCC1`, the IC50 (usually the midpoint of a concentration-inhibition curve) in assay [1] is 11.4 µM (active); in [2], 5.43 µM (active).

As to `Cc1cccc(Nc2nc(N)nc(CCl)n2)c1`, the concentration for a half-maximal effect (EC50) – broadly, the midpoint of the concentration-response curve – in [3] is 24.4 µM (active); in assay [8], 6.83 µM (inconclusive); in assay [9], 3.92 µM (active); in [12], 7.74 µM (active); in [14], 8.71 µM (active); in assay [15], > 75 µM (inconclusive). Besides, the IC50 is > 20 µM (inactive) in [4]; 10.2 µM (inactive) in assay [5]; > 20 µM (inactive) in assay [6]; > 20 µM (inactive) in assay [7]; 9.2 µM (active) in assay [10]; > 50 µM (not active) in assay [11]. Also, the concentration for half-maximal inhibition (IC50) in assay [13] was 4.54 µM (active).

On to `Cc1ccccc1C(=O)N1CCN(c2ccc(NC(=O)c3ccc4c(c3)OCCO4)cc2)CC1`, for which the half-maximal inhibitory concentration (IC50) in [4] was 4.73 µM (active); in assay [16], > 20 µM (inactive); in assay [5], 3.6 µM (active); in assay [6] it was 9.82 µM (active); in [7], > 20 µM (inactive); in assay [10] it was 4.55 µM (active). Further, the IC50 in assay [13] was 3.69 µM (active). In addition, the concentration at half-maximal activity (AC50) – broadly, the concentration at which the activity in the assay is half-maximal – was 2.17 µM (active) in assay [17] and 4.24 µM (active) in assay [18]. The EC50 was 10.2 µM (active) in [19] and 4.61 µM (active) in [14].

On to `O=C(CN(C(=O)c1ccc(Cl)cc1)C1CCCCC1)Nc1ccc(Cl)c([N+](=O)[O-])c1`, for which the IC50 in assay [20] was 3.45 µM (active); in assay [21], 1.85 µM (active). For the same compound, the half-maximal activity concentration (AC50) in assay [22] was 20.6 µM (active); in assay [17], 8.11 µM (active); in assay [18], 52.6 µM (active).

As to `O=C(CNCCc1ccc(Cl)cc1Cl)NCc1ccco1`, the IC50 in assay [1] was 12.3 µM (active); in assay [2] it was 18.7 µM (active).

For the compound `Cc1cccc(NC(=S)N=Nc2c(O)n(C)c3ccc(S(=O)(=O)N4CCOCC4)cc23)c1`, the results for the half-maximal inhibitory concentration (IC50) in [20] and in assay [21] were 6.3 µM (active) and 5.04 µM (active), respectively. Moreover, the half-maximal activity concentration (AC50) in assay [23] was 0.985 µM (active).

For the compound `Oc1ccc(C2C[C@H]3CC[C@@H]2C3)cc1O` (stereo not given in full), the values for the EC50 in assay [24], in assay [26] and in [27] were 20 µM (active), > 300 µM (not active) and 20.6 µM (inconclusive), respectively. For the same compound, the IC50 in assay [25] was > 80 µM (inactive).
